The assay deals with IL-1b. Put plainly: Mouse BMDM IL-1b Assay. The assay is classed as cell-based. As to conditions: Macrophage; mouse bone marrow derived macrophages (C57BL6); 200 ng/mL LPS 3 h, compound 30 min, 5 mM ATP 45 min; IL-1b ELISA of supernatant. The method, then: Example 20: Mouse BMDM IL-1b Assay
Mouse bone marrow cells from C57BL6 tibia and femur were culture in complete Isocov's Media supplemented with 20 ng/mL MCSF (BMDM media) at a density of 50 million cells/15 cm Petri dish. Fresh media was changed every 3 days, and bone marrow derived macrophages were collected, washed, and counted on day 7. Cells were seeded into 96 well plates at a density of 5×10^4 cells per well in 100 uL of BMDM media and cultured overnight. The cells were stimulated at 37° C. with 200 ng/mL Ultrapure LPS-B5 for 3 hours before pre-diluted compounds were added. 30 minutes after compound addition, 5 mM ATP was added for the secondary stimulation for 45 minutes. After stimulation, the plates were briefly spun down, and 50 uL of supernatant was harvested from each well. ELISA for mouse IL-1b was performed with 1:10 and 1:100 diluted supernatant using pre-coated kits. IL-1b concentrations were calculated based on pre-titrated standards, and compound inhibition IC50 is generated using the Levenberg Marquardt damped lease-square method.
(In general: An ELISA detects its analyte on a solid surface through an enzyme-linked reagent.)

Among the data in patent US12466800B2, “N-((1,2,3,5,6,7-hexahydro-S-indacen-4-yl)carbamoyl)-4, 5, 6, 7-tetrahydrobenzofuran-2-sulfonamide derivatives and related compounds as NLPR3 modulators for the treatment of multiple sclerosis (MS)” (Zomagen Biosciences Ltd, priority 2019, dated 2025) are IC50 values, retold here.

Each structure is given as a SMILES string.

As to `CC1(O)CCCc2oc(S(=O)(=O)NC(=O)Nc3c4c(cc5c3CCC5)CCC4)cc21` (stereo not drawn) [Compound 5, N-((1,2,3,5,6,7-hexahydro-s-indacen-4-yl)carbamoyl)-4-hydroxy-4-methyl-4,5,6,7-tetrahydrobenzofuran-2-sulfonamide], the IC50 (in general, the concentration that gives 50% inhibition) was less than 100 nM. As for `O=C(Nc1c2c(cc3c1CCC3)CCC2)NS(=O)(=O)c1cc2c(o1)CCCC2=O` [Compound 6], the IC50 is 100 to 1000 nM. The result for `O=C(Nc1c2c(cc3c1CCC3)CCC2)NS(=O)(=O)c1cc2c(o1)CCCC2O` (stereo not drawn) [Compound 8, N-((1,2,3,5,6,7-hexahydro-s-indacen-4-yl)carbamoyl)-4-hydroxy-4,5,6,7-tetrahydrobenzofuran-2-sulfonamide] reads less than 100 nM; that for `CC1(C)CCc2oc(S(=O)(=O)NC(=O)Nc3c4c(cc5c3CCC5)CCC4)cc2C1(C)O` (stereo not drawn) [Compound 11, N-((1,2,3,5,6,7-hexahydro-s-indacen-4-yl)carbamoyl)-4-hydroxy-4,5,5-trimethyl-4,5,6,7-tetrahydrobenzofuran-2-sulfonamide], less than 100 nM. Molecule `CC1(C)CCC(C)(O)c2cc(S(=O)(=O)NC(=O)Nc3c4c(cc5c3CCC5)CCC4)oc21` (stereo not drawn) [Compound 12, N-((1,2,3,5,6,7-hexahydro-s-indacen-4-yl)carbamoyl)-4-hydroxy-4,7,7-trimethyl-4,5,6,7-tetrahydrobenzofuran-2-sulfonamide] registered an IC50 of less than 100 nM. With `CC1(C)CCc2oc(S(=O)(=O)NC(=O)Nc3c4c(cc5c3CCC5)CCC4)cc2C1=O` [Compound 13, N-((1,2,3,5,6,7-hexahydro-s-indacen-4-yl)carbamoyl)-5,5-dimethyl-4-oxo-4,5,6,7-tetrahydrobenzofuran-2-sulfonamide], the IC50 lay in the range of 100 to 1000 nM.

With `CC1(C)CCc2oc(S(=O)(=O)NC(=O)Nc3c4c(cc5c3CCC5)CCC4)cc2C1O` (stereo not drawn) [Compound 14, N-((1,2,3,5,6,7-hexahydro-s-indacen-4-yl)carbamoyl)-4-hydroxy-5,5-dimethyl-4,5,6,7-tetrahydrobenzofuran-2-sulfonamide], the IC50 is less than 100 nM. In the case of `CC1Cc2oc(S(=O)(=O)NC(=O)Nc3c4c(cc5c3CCC5)CCC4)cc2C(C)(O)C1` (stereo not drawn) [Compound 16, N-((1,2,3,5,6,7-hexahydro-s-indacen-4-yl)carbamoyl)-4-hydroxy-4,6-dimethyl-4,5,6,7-tetrahydrobenzofuran-2-sulfonamide] it was less than 100 nM; in that of `CC1CC(=O)c2cc(S(=O)(=O)NC(=O)Nc3c4c(cc5c3CCC5)CCC4)oc2C1` (stereo not drawn) [Compound 17, N-((1,2,3,5,6,7-hexahydro-s-indacen-4-yl)carbamoyl)-6-methyl-4-oxo-4,5,6,7-tetrahydrobenzofuran-2-sulfonamide], 100 to 1000 nM.

Molecule `CC1Cc2oc(S(=O)(=O)NC(=O)Nc3c4c(cc5c3CCC5)CCC4)cc2C(O)C1` (stereo not drawn) [Compound 18, N-((1,2,3,5,6,7-hexahydro-s-indacen-4-yl)carbamoyl)-4-hydroxy-6-methyl-4,5,6,7-tetrahydrobenzofuran-2-sulfonamide] gave a half-maximal inhibitory concentration (IC50) of 100 to 1000 nM. The result for `CC1(C)Cc2oc(S(=O)(=O)NC(=O)Nc3c4c(cc5c3CCC5)CCC4)cc2C(C)(O)C1` (stereo not drawn) [Compound 20, N-((1,2,3,5,6,7-hexahydro-s-indacen-4-yl)carbamoyl)-4-hydroxy-4,6,6-trimethyl-4,5,6,7-tetrahydrobenzofuran-2-sulfonamide] reads less than 100 nM; that for `CC1(C)CC(=O)c2cc(S(=O)(=O)NC(=O)Nc3c4c(cc5c3CCC5)CCC4)oc2C1` [Compound 21, N-((1,2,3,5,6,7-hexahydro-s-indacen-4-yl)carbamoyl)-6,6-dimethyl-4-oxo-4,5,6,7-tetrahydrobenzofuran-2-sulfonamide], 100 to 1000 nM. `CC1(C)Cc2oc(S(=O)(=O)NC(=O)Nc3c4c(cc5c3CCC5)CCC4)cc2C(O)C1` (stereo not drawn) [Compound 22, N-((1,2,3,5,6,7-hexahydro-s-indacen-4-yl)carbamoyl)-4-hydroxy-6,6-dimethyl-4,5,6,7-tetrahydrobenzofuran-2-sulfonamide] returned an IC50 of less than 100 nM. In the case of `CC1(O)CCCCc2oc(S(=O)(=O)NC(=O)Nc3c4c(cc5c3CCC5)CCC4)cc21` (stereo not drawn) [Compound 24, N-((1,2,3,5,6,7-hexahydro-s-indacen-4-yl)carbamoyl)-4-hydroxy-4-methyl-5,6,7,8-tetrahydro-4H-cyclohepta[b]furan-2-sulfonamide], the IC50 was less than 100 nM. In the case of `O=C(Nc1c2c(cc3c1CCC3)CCC2)NS(=O)(=O)c1cc2c(o1)CCCCC2O` (stereo not drawn) [Compound 25, N-((1,2,3,5,6,7-hexahydro-s-indacen-4-yl)carbamoyl)-4-hydroxy-5,6,7,8-tetrahydro-4H-cyclohepta[b]furan-2-sulfonamide] it was less than 100 nM; in that of `CC(C)C1Cc2oc(S(=O)(=O)NC(=O)Nc3c4c(cc5c3CCC5)CCC4)cc2C(C)(O)C1` (stereo not drawn) [Compound 27, N-((1,2,3,5,6,7-hexahydro-s-indacen-4-yl)carbamoyl)-4-hydroxy-6-isopropyl-4-methyl-4,5,6,7-tetrahydrobenzofuran-2-sulfonamide], less than 100 nM. The result for `CC(C)C1Cc2oc(S(=O)(=O)NC(=O)Nc3c4c(cc5c3CCC5)CCC4)cc2C(O)C1` (stereo not drawn) [Compound 28, N-((1,2,3,5,6,7-hexahydro-s-indacen-4-yl)carbamoyl)-4-hydroxy-6-isopropyl-4,5,6,7-tetrahydrobenzofuran-2-sulfonamide] reads 100 to 1000 nM; that for `O=C(Nc1c2c(cc3c1CCC3)CCC2)NS(=O)(=O)c1cc2c(o1)CCCc1c[nH]nc1-2` [Compound 33, N-((1,2,3,5,6,7-hexahydro-s-indacen-4-yl)carbamoyl)-2,4,5,6-tetrahydrofuro[2′,3′:6,7]cyclohepta[1,2-c]pyrazole-8-sulfonamide], 100 to 1000 nM. In the case of `O=C(Nc1c2c(cc3c1CCC3)CCC2)NS(=O)(=O)c1cc2c(o1)CCC/C2=N\O` [Compound 35, (E)-N-((1,2,3,5,6,7-hexahydro-s-indacen-4-yl)carbamoyl)-4-(hydroxyimino)-4,5,6,7-tetrahydrobenzofuran-2-sulfonamide] it was less than 100 nM; in that of `O=C(Nc1c2c(cc3c1CCC3)CCC2)NS(=O)(=O)c1cc2c(o1)CCC/C2=N/O` [Compound 36, (Z)—N-((1,2,3,5,6,7-hexahydro-s-indacen-4-yl)carbamoyl)-4-(hydroxyimino)-4,5,6,7-tetrahydrobenzofuran-2-sulfonamide], less than 100 nM; in that of `O=C(Nc1c2c(cc3c1CCC3)CCC2)NS(=O)(=O)c1cc2c(o1)CCCNC2=O` [Compound 38, N-((1,2,3,5,6,7-hexahydro-s-indacen-4-yl)carbamoyl)-4-oxo-5,6,7,8-tetrahydro-4H-furo[3,2-c]azepine-2-sulfonamide], 100 to 1000 nM. As to `O=C(Nc1c2c(c(Br)c3c1CCC3)CCC2)NS(=O)(=O)c1cc2c(o1)CCCC2O` (stereo not drawn) [Compound 39, N-((8-bromo-1,2,3,5,6,7-hexahydro-s-indacen-4-yl)carbamoyl)-4-hydroxy-4,5,6,7-tetrahydrobenzofuran-2-sulfonamide], the concentration for half-maximal inhibition (IC50) was less than 100 nM.

`CC1(O)CCCc2oc(S(=O)(=O)NC(=O)Nc3c4c(c(Br)c5c3CCC5)CCC4)cc21` (stereo not drawn) [Compound 40, N-((8-bromo-1,2,3,5,6,7-hexahydro-s-indacen-4-yl)carbamoyl)-4-hydroxy-4-methyl-4,5,6,7-tetrahydrobenzofuran-2-sulfonamide] yielded an IC50 of less than 100 nM. In the case of `CO/N=C1/CCCc2oc(S(=O)(=O)NC(=O)Nc3c4c(cc5c3CCC5)CCC4)cc21` [Compound 41, (Z)-N-((1,2,3,5,6,7-hexahydro-s-indacen-4-yl)carbamoyl)-4-(methoxyimino)-4,5,6,7-tetrahydrobenzofuran-2-sulfonamide] it was 100 to 1000 nM; in that of `CC(=O)NC1CCCc2oc(S(=O)(=O)NC(=O)Nc3c4c(c(Br)c5c3CCC5)CCC4)cc21` (stereo not drawn) [Compound 42, N-(2-(N-((8-bromo-1,2,3,5,6,7-hexahydro-s-indacen-4-yl)carbamoyl)sulfamoyl)-4,5,6,7-tetrahydrobenzofuran-4-yl)acetamide], 100 to 1000 nM. For `O=C(Nc1c2c(c(Cl)c3c1CCC3)CCC2)NS(=O)(=O)c1cc2c(o1)CCCC2O` (stereo not drawn) [Compound 43, N-((8-chloro-1,2,3,5,6,7-hexahydro-s-indacen-4-yl)carbamoyl)-4-hydroxy-4,5,6,7-tetrahydrobenzofuran-2-sulfonamide], the half-maximal inhibitory concentration (IC50) was less than 100 nM. For `CC1(O)CCCc2oc(S(=O)(=O)NC(=O)Nc3c4c(c(Cl)c5c3CCC5)CCC4)cc21` (stereo not drawn) [Compound 44, N-((8-chloro-1,2,3,5,6,7-hexahydro-s-indacen-4-yl)carbamoyl)-4-hydroxy-4-methyl-4,5,6,7-tetrahydrobenzofuran-2-sulfonamide], the half-maximal inhibitory concentration (IC50) was less than 100 nM. Molecule `CCC1(O)CCCc2oc(S(=O)(=O)NC(=O)Nc3c4c(cc5c3CCC5)CCC4)cc21` (stereo not drawn) [Compound 45, 4-ethyl-N-((1,2,3,5,6,7-hexahydro-s-indacen-4-yl)carbamoyl)-4-hydroxy-4,5,6,7-tetrahydrobenzofuran-2-sulfonamide] registered a 50% inhibitory concentration (IC50) of less than 100 nM. The result for `O=C(Nc1c2c(c(F)c3c1CCC3)CCC2)NS(=O)(=O)c1cc2c(o1)CCCC2O` (stereo not drawn) [Compound 46, N-((8-fluoro-1,2,3,5,6,7-hexahydro-s-indacen-4-yl)carbamoyl)-4-hydroxy-4,5,6,7-tetrahydrobenzofuran-2-sulfonamide] reads less than 100 nM.

Turning to `CC1(O)CCCc2oc(S(=O)(=O)NC(=O)Nc3c4c(c(F)c5c3CCC5)CCC4)cc21` (stereo not drawn) [Compound 47, N-((8-fluoro-1,2,3,5,6,7-hexahydro-s-indacen-4-yl)carbamoyl)-4-hydroxy-4-methyl-4,5,6,7-tetrahydrobenzofuran-2-sulfonamide], the IC50 was less than 100 nM.
